Data: US7652029B2, “Therapeutic compound and treatments” (priority 2004, dated 2010)

How the values were obtained:
SK-MEL-2 = assay: NCI multiple cell line test (SRB); type: cell-based, human; details: SK-MEL-2 (Melanoma), 48 h
KM12 = assay: NCI multiple cell line test (SRB); type: cell-based, human; details: KM12 (Colon Cancer), 48 h
MCF7 = assay: NCI multiple cell line test (SRB); type: cell-based, human
SCK cells = assay: Growth response, MTT dye conversion assay; type: cell-based, murine; details: FIG. 8; 48 hours; compared with cisplatin
HOP-92 cells = assay: Growth response, MTT dye conversion assay; type: cell-based, human; details: low doses (FIG. 12 as printed)
BT-549 = assay: NCI multiple cell line test (SRB); type: cell-based, human; details: BT-549 (Breast Cancer), 48 h
UACC-257 = assay: NCI multiple cell line test (SRB); type: cell-based, human; details: UACC-257 (Melanoma), 48 h
[1] = system: normal human lung fibroblasts; assay: Growth response, MTT dye conversion assay; type: cell-based; details: compared with cisplatin
MDA-MB-231/ATCC = assay: NCI multiple cell line test (SRB); type: cell-based, human; details: MDA-MB-231/ATCC (Breast Cancer), 48 h
MDA-MB-435 = assay: NCI multiple cell line test (SRB); type: cell-based, human; details: MDA-MB-435 (Breast Cancer), 48 h
A549/ATCC = assay: NCI multiple cell line test (SRB); type: cell-based, human; details: A549/ATCC (Non-Small Cell Lung Cancer), 48 h
LOX IMVI = assay: NCI multiple cell line test (SRB); type: cell-based, human; details: LOX IMVI (Melanoma), 48 h
U251 = assay: NCI multiple cell line test (SRB); type: cell-based, human; details: U251 (CNS Cancer), 48 h
SK-MEL-5 = assay: NCI multiple cell line test (SRB); type: cell-based, human; details: SK-MEL-5 (Melanoma), 48 h
NCI-H460 = assay: NCI multiple cell line test (SRB); type: cell-based, human
NCI-H23 = assay: NCI multiple cell line test (SRB); type: cell-based, human; details: NCI-H23 (Non-Small Cell Lung Cancer), 48 h
HCT-116 = assay: NCI multiple cell line test (SRB); type: cell-based, human; details: HCT-116 (Colon Cancer), 48 h
SNB-19 = assay: NCI multiple cell line test (SRB); type: cell-based, human; details: SNB-19 (CNS Cancer), 48 h
[2] = system: human endothelial vein cells (HUVECs); assay: Growth response, MTT dye conversion assay; type: cell-based; details: FIG. 6; 48 hours; compared with cisplatin
MCF-7 cells = assay: Growth response, MTT dye conversion assay; type: cell-based, human; details: FIG. 7; 48 hours; compared with cisplatin
HT29 = assay: NCI multiple cell line test (SRB); type: cell-based, human; details: HT29 (Colon Cancer), 48 h
OVCAR-5 = assay: NCI multiple cell line test (SRB); type: cell-based, human; details: OVCAR-5 (Ovarian Cancer), 48 h
TK-10 = assay: NCI multiple cell line test (SRB); type: cell-based, human; details: TK-10 (Renal Cancer), 48 h
SK-MEL-28 = assay: NCI multiple cell line test (SRB); type: cell-based, human; details: SK-MEL-28 (Melanoma), 48 h
HS 578T = assay: NCI multiple cell line test (SRB); type: cell-based, human; details: HS 578T (Breast Cancer), 48 h
[3] = Homo sapiens, read-out: −log10GI50 (converted)
[4] = NCI-H460 (Non-Small Cell Lung Cancer), 48 h

## COC(=O)C1=C(C(=O)OC)SC2(S1)C(C(=O)OC)=C(C(=O)OC)SC1=C2c2cccc(OC)c2N(C(=O)CN2C(=O)CCC2=O)C1(C)C [MT477]
SK-MEL-2; [3]
  IC50: 4.68 µM
SK-MEL-2
  −log10LC50: * (effect not reached at maximum dose of 0.05 millimolar)
  −log10TGI: 4.41 molar
KM12; [3]
  IC50: 2290 nM
KM12
  −log10LC50: * (effect not reached at maximum dose of 0.05 millimolar)
  −log10TGI: * (effect not reached at maximum dose of 0.05 millimolar)
MCF7; Homo sapiens, MCF7 (Breast Cancer), 48 h, read-out: −log10GI50 (converted)
  IC50: 1780 nM
MCF7; Homo sapiens, NCI-MCF7, MT477 ACTUAL
  GI50: 1580 nM
MCF7; MCF7 (Breast Cancer), 48 h
  −log10LC50: * (effect not reached at maximum dose of 0.05 millimolar)
  −log10TGI: * (effect not reached at maximum dose of 0.05 millimolar)
MCF7; MT477 ACTUAL
  Activity against breast cancer NCI-MCF7: Yes
SCK cells
  growth response: more effective than cisplatin
HOP-92 cells
  growth response at low concentrations: effective even at very low doses, including micromolar dosages
BT-549
  −log10LC50: * (effect not reached at maximum dose of 0.05 millimolar)
  −log10TGI: 4.86 molar
BT-549; [3]
  IC50: 3.55 µM
UACC-257; [3]
  IC50: 1480 nM
UACC-257
  −log10LC50: 4.55 molar
  −log10TGI: 5.53 molar
[1]; FIG. 10, normal human lung cells at 24 and 48 hours
  growth response: more effective than cisplatin
[1]; FIGS. 1 and 2, 48 hours
  cytotoxicity profile (growth response): cytotoxicity profile that is similar to cisplatin
MDA-MB-231/ATCC; [3]
  IC50: 851 nM
MDA-MB-231/ATCC
  −log10LC50: 5.46 molar
  −log10TGI: 5.76 molar
MDA-MB-435; [3]
  IC50: 1700 nM
MDA-MB-435
  −log10LC50: 4.58 molar
  −log10TGI: 5.27 molar
A549/ATCC
  −log10LC50: * (effect not reached at maximum dose of 0.05 millimolar)
  −log10TGI: 4.77 molar
A549/ATCC; [3]
  IC50: 3.8 µM
LOX IMVI; [3]
  IC50: 851 nM
LOX IMVI
  −log10LC50: 5.52 molar
  −log10TGI: 5.79 molar
U251; Homo sapiens, U-251, read-out: −log10GI50 (converted)
  IC50: 2000 nM
U251
  −log10LC50: 4.72 molar
  −log10TGI: 5.14 molar
SK-MEL-5; [3]
  IC50: 6.17 µM
SK-MEL-5
  −log10LC50: * (effect not reached at maximum dose of 0.05 millimolar)
  −log10TGI: 4.51 molar
NCI-H460; Homo sapiens, NCI-H460 (Non-Small Cell Lung Cancer), 48 h, read-out: −log10GI50 (converted)
  IC50: 1740 nM
NCI-H460; Homo sapiens, NCI-H460, MT477 ACTUAL
  GI50: 1740 nM
NCI-H460; MT477 ACTUAL
  Activity against lung cancer NCI-H460: Yes
NCI-H460; [4]
  −log10LC50: * (effect not reached at maximum dose of 0.05 millimolar)
  −log10TGI: * (effect not reached at maximum dose of 0.05 millimolar)
NCI-H23; [3]
  IC50: 955 nM
NCI-H23
  −log10LC50: 5.42 molar
  −log10TGI: 5.72 molar
HCT-116
  −log10LC50: 5.48 molar
  −log10TGI: 5.75 molar
HCT-116; [3]
  IC50: 955 nM
SNB-19; [3]
  IC50: 7.94 µM
SNB-19
  −log10LC50: 4.46 molar
  −log10TGI: 4.78 molar
[2]
  cytotoxicity profile (growth response): cytotoxicity profile that is similar to cisplatin
MCF-7 cells
  growth response: more effective than cisplatin
HT29
  −log10LC50: * (effect not reached at maximum dose of 0.05 millimolar)
  −log10TGI: 4.65 molar
HT29; Homo sapiens, HT-29, read-out: −log10GI50 (converted)
  IC50: 1700 nM
OVCAR-5; [3]
  IC50: 8.91 µM
OVCAR-5
  −log10LC50: 4.53 molar
  −log10TGI: 4.79 molar
TK-10; [3]
  IC50: 1580 nM
TK-10
  −log10LC50: 4.75 molar
  −log10TGI: 5.34 molar
SK-MEL-28; [3]
  IC50: 1550 nM
SK-MEL-28
  −log10LC50: * (effect not reached at maximum dose of 0.05 millimolar)
  −log10TGI: 5.27 molar
HS 578T
  −log10LC50: * (effect not reached at maximum dose of 0.05 millimolar)
  −log10TGI: 4.68 molar
HS 578T; [3]
  IC50: 6.61 µM
